Source: patent US20240085429A1, “ALTERING PROTEIN FUNCTION BY PHARMACOLOGICAL TARGETING OF MEMBRANE DOMAINS” (University of Virginia Patent Foundation, priority 2021, published 2024)

Tested on: GPMVs isolated from HeLa cells
Assay: High-throughput screen of the Cayman bioactive lipid library for effects on GPMV phase behavior (% phase separated vesicles, NBD-DSPE phase preference)
Parameters: species or system human
Conditions: HeLa GPMVs, RT; for Effect on % phase separated vesicles: final drug concentration 1 μM, NBD-DSPE channel; for % phase separated z-score / Pordered z-score: Table 4; for % phase separated z-score / Pordered z-score / Effect on Pang(ϕ): final 1 μM; for Pordered z-score: NBD-DSPE; for Effect on Pang(ϕ): NBD-DSPE raft phase preference
Experimental: This approach is not practical for high throughput screening applications, which typically are performed at a single temperature. Changes in the percentage of phase-separated GPMVs were monitored at a single temperature in response to the addition of small molecules as a surrogate for measuring Tmisc directly (FIG. 1A). This approach requires that a significant fraction of GPMVs are phase separated under control conditions, such that experimentally-induced changes can be readily detected.
In phase separated vesicles these markers are enriched in their preferred domains, such that a given vesicle contains a co-existing NBD-DSPE-rich phase and a DiD-rich phase. In contrast, NBD-DSPE and DiD colocalize in a single uniform phase in GPMVs that are not phase separated. We also optimized conditions to isolate and plate GPMVs in multi-well plates.
To provide proof-of-concept, the Cayman lipid library containing ˜850 bioactive lipid-like compounds in the Vanderbilt High-throughput Screening Facility was screened, using […] of each compound across three independent screens. All screens were carried out using an automated microscope/high-content imaging system and robotic plate handler at RT. […] Compounds were initially scored based on their capacity to alter the percentage of phase separated vesicles (FIG. 2A).
HeLa cells were obtained from ATCC (cat #CCL-2) and cultured at 37° C. in 5% CO2 in a humidified tissue culture incubator. […] In brief, cells were plated in 150 mm tissue culture dishes the day before the experiment, to yield a confluence of 70-80% the day of the experiment. To generate GPMVs, cells were rinsed twice in 10 ml of GPMV buffer (2 mM DTT, 25 mM formaldehyde, 150 mM NaCl, 10 mM HEPES, 2 mM CaCl2), pH=7.4) and subsequently incubated in 12 ml of GPMV buffer at 37° C. with gentle shaking at 70 rpm for 1.5 h. The raft marker NBD-DSPE (1,2-distearoyl-sn-glycero-3-phosphoethanolamine-N-(7-nitro-2-1,3-benzoxadiazol-4-yl; Avanti Polar Lipids) and the non-raft marker DiD (1,1′-dioctadecyl-3,3,3′,3′-tetramethylindodicarbocyanine perchlorate; cat #D307 Thermo Scientific) were added from stock solutions in ethanol to the GPMV suspension at final concentrations of 5-6 μg/ml and 1 μg/ml, respectively, for the initial screenings. For some experiments, cells were prelabelled with 5 μg/ml DiD for 8 min at 4° C. and washed several times prior to GPMVs generation. Screening was performed the same day that GPMVs were generated.
[…] GPMVs suspension in GPMV buffer was then added to each well of a 96-well plate to obtain a final drug concentration of 1 μM. The GPMVs were allowed to settle to the bottom of the plates for 1.5 h prior to imaging. Samples were prepared and imaged at RT. The screen was repeated on three different days using three separately prepared batches of GPMVs (3 biological replicates).
Image acquisition was performed with an ImageXpress Micro XL automated microscope (Molecular Devices) using a Nikon 40X 0.6 NA Super Plan Fluor ELWD objective and a Lumencor Sola solid-state light source. Laser autofocus was employed at each site to obtain the best focus z-plane for each channel. […] Sixteen sites were captured per well using a 4.2 MP widefield scientific cMOS camera with a camera binning of 1. Each plate took approximately 1.3 h to image. Multiple plates were loaded to a plate carousel (ThermoScientific), shuttled to/from the ImageXpress via a ThermoScientific CRS F3 robot arm, and automatically run through the Momentum scheduling software (Thermo). To analyze the data, images and metadata were exported as TIFF files and subjected to image analysis using a custom MATLAB-based program as described below.

Structure (SMILES) | Effect on % phase separated vesicles | % phase separated z-score | Pordered z-score | Effect on Pang(ϕ)
CCCCCCCCCCCCCCCCOC[C@H](COP(=O)([O-])OCC[N+](C)(C)C)OC(C)=O [PAF C-16, 1-O-hexadecyl-2-O-acetyl-sn-glyceryl-3-phosphorylcholine] | ↓ | −2.00 | 1.87 | 
CCCCC/C=C\C/C=C\CCCCCCCCCC(=O)O [11(Z),14(Z)-Eicosadienoic Acid] | ↓ | −2.15 | −0.46 | 
Br.CCSC(=N)N [S-ethyl Isothiourea (hydrobromide)] |  | 0.85 | 2.57 | ↑
CCCCCCCCCCCCCCCC(=O)NCCS(=O)(=O)O [N-Palmitoyl Taurine] | ↑ | 2.19 | 1.66 | 
CCCCCCCCCCCCCCCCCC(=O)NCCS(=O)(=O)O [N-Stearoyl Taurine] | ↑ | 3.21 | 2.89 | ↑
CCCCCCCCCCCCC/C=C/[C@@H](O)[C@H](CO)N(C)C [N,N-Dimethylsphingosine (d18:1)] | ↓ | −2.09 | −0.70 | 
CCCCCCCCCCCCCCCCOCC(COP(=O)([O-])OCC[N+](C)(C)C)SC(C)=O (stereo not drawn) [2-thio-PAF, 1-O-hexadecyl-2-deoxy-2-thio-S-acetyl-sn-glyceryl-3-phosphorylcholine] | ↓ | −3.15 | −0.72 | 
CN(C)S(=O)(=O)c1ccc2c(c1)C(=Cc1cc3c([nH]1)CCCC3)C(=O)N2 [SU6656, 2,3-dihydro-N,N-dimethyl-2-oxo-3-[(4,5,6,7-tetrahydro-1H-indol-2-yl)methylene]-1H-indole-5-sulfonamide] | ↓ | −2.06 | −0.42 | 
CCCCCCCCCCCCC/C=C/[C@@H](O)[C@H](CO)NC(=O)CCCCCCC [C8 Ceramide (d18:1/8:0)] | ↓ | −2.87 | −0.72 | 
C=C(C)[C@@H]1CCC(C)=C[C@H]1c1c(C)cc(O)cc1O [O-1602, 5-methyl-4-[(1R,6R)-3-methyl-6-(1-methylethenyl)-2-cyclohexen-1-yl] -1,3-benzenediol] | ↓ | −2.10 | −0.27 | 
CCCCCCCCCCCC1NC(C(=O)O)CS1 (stereo not drawn) [CAY10444, 2-undecyl-thiazolidine-4-carboxylic acid] |  | −1.61 | −2.04 | ↓
Cl.c1cc(N2CCNCC2)c2cnccc2c1 [8-piperazin-1-yl-Isoquinoline (hydrochloride)] | ↑ | 2.14 | 1.61 | 
CCCCCCCC/C=C\CCCCCCCC(=O)OC[C@@H](COP(O)(O)=S)OC.CCN(CC)CC.CCN(CC)CC [(2S)-OMPT, 9Z-octadecenoic acid, (2S)-3-[(hydroxymercaptophosphinyl)oxy]-2-methoxypropyl ester, triethyl ammonium salt (1:2)] | ↓ | −2.12 | −0.27 | 
CC1(COc2ccc(CC3SC(=O)NC3=O)cc2)CCCCC1 (stereo not drawn) [Ciglitazone] |  | −2.73 | −1.71 | 
CCCCCCCC/C=C\CCCCCCCC(=O)N[C@H](CO)c1ccc(O)cc1 [OMDM-1, (S)-N-(1-(4-hydroxyphenyl)-2-hydroxyethyl) oleamide] | ↓ | −2.62 | −0.54 | 
COc1ccc(/C=C\c2cc(OC)cc(OC)c2)cc1 [cis-trismethoxy Resveratrol] | ↓ | −2.45 | −1.61 | 
